Assay results published in patent US8129518B2, “Synthetic polysaccharide antigens for immunological intervention in disease” (Eli Lilly and Company, priority 2004, dated 2012).

Tests used:
Assay type in all cases: cell-based
[1] = tested on: human monocyte-derived iDC; test: Uptake by immature dendritic cells, confocal microscopy; details: two minutes incubation at 37° C.; labeled Compound 1 50 μg/ml, FITC-dextran 1 mg/ml
Method: Briefly, Oregon-green (Molecular Probes, Eugene, Oreg.)-conjugated Lipid II is included in an MtgA polymerization reaction at a ratio of 1:4 with unlabeled Lipid II to produce a 25% Oregon-green labeled polymer. The polymeric material is purified and treated as previously described. […] After incubation, extracellular probe is removed by washing the cells four times in ice cold complete DC medium (Example 5). Washed cells are then incubated at 37° C. and staining is stopped at two-minute intervals by washing in 1% paraformaldehyde fix diluted in flow wash solution (which also contains the metabolic poison sodium azide; protocol described in Example 5). Glass slide samples are prepared at each time interval and sealed with clear nail polish. Samples are stored at −20° C. and protected from light until analysis on a Radiance 2100 confocal microscope (BioRad Laboratories, Hercules, Calif.).

[2] = tested on: human monocyte-derived dendritic cells; test: Kinetics of uptake by immature dendritic cells, flow cytometry; details: 0° C., cells metabolically inactive
Method: In these experiments, human monocyte-derived dendritic cells are prepared as described in Example 5. Dendritic cells are resuspended at 5×10^5 cells/sample and incubated on ice at […] At 0, 2, 10, 20, 30, 40, and 50 minutes after the start of incubation, uptake is stopped by washing the cells with four washes of ice cold flow wash buffer (Example 5). The washed cells are fixed in paraformaldehyde also as described in Example 5. Stained, fixed cells are stored at 4° C. protected from light until analysis using a FC500 flow cytometer (Beckman Coulter, Miami, Fla.).

human TLR-2 = target: T1, human TLR-2 (Homo sapiens, UniProt O60603); details: 1 ng/ml, positive stimulation control
T1 construct: expressed in transfected cells; host or cells: HEK293 cells (ATCC), transiently transfected with Fugene6
T1 sequence (O60603 21-784): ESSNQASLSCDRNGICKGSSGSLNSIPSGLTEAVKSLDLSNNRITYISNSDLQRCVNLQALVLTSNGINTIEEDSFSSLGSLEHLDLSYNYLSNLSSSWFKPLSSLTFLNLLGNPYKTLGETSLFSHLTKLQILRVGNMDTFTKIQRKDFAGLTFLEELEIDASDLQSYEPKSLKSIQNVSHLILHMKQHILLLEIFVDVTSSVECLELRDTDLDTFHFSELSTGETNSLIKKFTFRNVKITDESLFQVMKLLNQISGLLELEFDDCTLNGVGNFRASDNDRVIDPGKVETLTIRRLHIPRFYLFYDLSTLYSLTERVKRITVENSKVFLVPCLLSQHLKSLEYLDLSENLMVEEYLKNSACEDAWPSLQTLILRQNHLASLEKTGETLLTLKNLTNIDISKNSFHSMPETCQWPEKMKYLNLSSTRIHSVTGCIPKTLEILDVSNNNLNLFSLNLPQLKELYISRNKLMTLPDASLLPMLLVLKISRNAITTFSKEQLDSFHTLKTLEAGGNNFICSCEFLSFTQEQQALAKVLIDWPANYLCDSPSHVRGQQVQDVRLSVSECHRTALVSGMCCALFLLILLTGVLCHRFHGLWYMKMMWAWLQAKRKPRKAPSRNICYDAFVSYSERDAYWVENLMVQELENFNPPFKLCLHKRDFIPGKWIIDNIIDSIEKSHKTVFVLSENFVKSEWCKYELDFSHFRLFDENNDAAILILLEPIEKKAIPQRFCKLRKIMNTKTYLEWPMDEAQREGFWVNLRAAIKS
Excerpt: These experiments involve transfecting HEK293 cells (American Type Culture Collection, Manassas, Va.) with two plasmid DNAs. The first plasmid, pcDNA3.1/Hygro (Invitrogen), contains the human TLR-2 gene. The second plasmid, pNF-κB-luc (Stratagene, La Jolla, Calif.), encodes the NF-κB gene linked to a luciferase reporter gene whose product can be followed in vitro as a direct measure of NF-κB-activation. To prepare the DNA for transfection into the cells, Fugene6 (Roche, Basel Switzerland) transfecting reagent is diluted 1:6 in OPTI-MEM (Invitrogen, Carlsbad, Calif.) growth medium. Next, 75 ng of pNF-κB-luc and 300 ng of pcDNA3.1/Hygro DNA are added to the diluted Fugene6 and the mixture is incubated at 37° C. for 30 minutes. HEK293 cells at a concentration of 10^6 cells/ml are added to the DNA/Fugene6 mixture. […] The amount of luciferase activity resulting from incubation with the compounds is evaluated by removing the growth medium from the cells and replacing it with 100 μl of RLB lysis solution (Promega, Madison, Wis.). […] The luciferase activity of each cell culture is determined in a 25 μl aliquot of cell lysate in a Victor Luminometer (Perkin Elmer Life Sciences, Shelton, Conn.) according to the manufacturer's instructions. […]

Substance | intracellular localization in iDCs (confocal images) [1] | uptake by iDCs over time (mean fluorescence intensity) [2] | increase in luciferase activity compared with unstimulated cultures (human TLR-2) [fold]
FITC-Dextran | Localization of polymer in endocytic vacuoles | uptake is inhibited | 
TNFα |  |  | 22.5
